Experimental data: patent US9873680B2 (Gilead Sciences, Inc., priority 2014, dated 2018)
Where two headings read alike, the source gives them in different places.

What was measured:
[1] = tested on: HIV-IIIb; test: Test A: Antiviral Assay in MT4 Cells; assay type: cell-based, HIV-1; conditions: for inhibition at 2 µM: 2 μM drug concentration, read-out: Response at 2 μM (percent inhibition of virus-induced cell killing)
How it was run: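 Readout was CellTiter-Glo luminescence after 10 min room-temperature lysis, taken 5 days after plating at 37 °C. The 2000 MT-4 cells per well, mixed 1 h beforehand with HIV-IIIb (m.o.i. 0.003), went straight onto the diluted compound.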

[2] = Test B: Cytotoxicity Assay; assay type: cell-based; conditions: human, uninfected MT-4 cells, CellTiter-Glo
Description: Test B: Cytotoxicity Assay Compound cytotoxicity and the corresponding CC50 values was determined using the same protocol as described in the antiviral assay (Test A) except that uninfected cells were used.

[3] = Human immunodeficiency virus 1, IIIB, MT4, 0.2 μM drug concentration, comparison with previously published compounds, read-out: Response at 0.2 μM (percent inhibition of virus-induced cell killing)
[4] = Human immunodeficiency virus 1, IIIB, MT4, comparison with previously published compounds
[5] = Human immunodeficiency virus 1, MT4, 120 h, 0.2 μM drug concentration, MT-4 cells infected with HIV-IIIb, 5 days, values normalized to 100%, average over time, read-out: % inhibition at 0.2 μM (percent inhibition of virus-induced cell killing)

Row | SMILES | inhibition at 0.2 µM [1, 3] | inhibition at 2 µM [1, 4] | inhibition at 0.2 µM [1, 5] | CC50 at 5 days [2] | inhibition at 0.2 µM ([1]; Human immunodeficiency virus 1, IIIB, MT4, 120 h, read-out: % inhibition at 0.2 μM (percent inhibition of virus-induced cell killing))
1 | Cn1nc(NS(C)(=O)=O)c2c(Cl)ccc(-c3ccc(C#CC4CC4)nc3[C@H](Cc3cc(F)cc(F)c3)NC(=O)Cn3nc(C(F)F)c4c3C(F)(F)[C@@H]3C[C@H]43)c21 [Compound 96, N—((S)-1-(3-(4-chloro-1-methyl-3-(methylsulfonamido)-1H-indazol-7-yl)-6-(cyclopropylethynyl)pyridin-2-yl)-2-(3,5-difluorophenyl)ethyl)-2-((3bS,4aR)-3-(difluoromethyl)-5,5-difluoro-3b,4,4a,5-tetrahydro-1H-cyclopropa[3,4]cyclopenta[1,2-c]pyrazol-1-yl)acetamide] | 82% | 82% | 82% | 20.1 µM | 
2 | CCN1CCO[C@](C)(C#Cc2ccc(-c3ccc(Cl)c4c(NS(C)(=O)=O)nn(C)c34)c([C@H](Cc3cc(F)cc(F)c3)NC(=O)Cn3nc(C(F)F)c4c3C(F)(F)[C@@H]3C[C@H]43)n2)C1 [Compound 85, N—((S)-1-(3-(4-chloro-1-methyl-3-(methylsulfonamido)-1H-indazol-7-yl)-6-(((R)-4-ethyl-2-methylmorpholin-2-yl)ethynyl)pyridin-2-yl)-2-(3,5-difluorophenyl)ethyl)-2-((3bS,4aR)-3-(difluoromethyl)-5,5-difluoro-3b,4,4a,5-tetrahydro-1-cyclopropa[3,4]cyclopenta[1,2-c]pyrazol-1-yl)acetamide] |  |  |  | 28.6 µM | 100%
3 | CC1CC(O)(C#Cc2ccc(-c3ccc(Cl)c4c(NS(C)(=O)=O)nn(C)c34)c([C@H](Cc3cc(F)cc(F)c3)NC(=O)Cn3nc(C(F)(F)F)c4c3C(F)(F)[C@@H]3C[C@H]43)n2)CC(C)O1 (stereo partly drawn) [Compound 48C, N-((1S)-1-(3-(4-chloro-1-methyl-3-(methylsulfonamido)-1H-indazol-7-yl)-6-((4-hydroxy-2,6-dimethyltetrahydro-2H-pyran-4-yl)ethynyl)pyridin-2-yl)-2-(3,5-difluorophenyl)ethyl)-2-((3bS,4aR)-5,5-difluoro-3-(trifluoromethyl)-3b,4,4a,5-tetrahydro-1H-cyclopropa[3,4]cyclopenta[1,2-c]pyrazol-1-yl)acetamide] |  |  | 92% | 7.27 µM | 
4 | Cn1nc(NS(C)(=O)=O)c2c(Cl)ccc(-c3ccc(C#CC4COCCN4)nc3[C@H](Cc3cc(F)cc(F)c3)NC(=O)Cn3nc(C(F)(F)F)c4c3C(F)(F)[C@@H]3C[C@H]43)c21 (stereo partly drawn) [Compound 49, N-((1S)-1-(3-(4-chloro-1-methyl-3-(methylsulfonamido)-1H-indazol-7-yl)-6-(morpholin-3-ylethynyl)pyridin-2-yl)-2-(3,5-difluorophenyl)ethyl)-2-((3bS,4aR)-5,5-difluoro-3-(trifluoromethyl)-3b,4,4a,5-tetrahydro-1 I-cyclopropa[3,4]cyclopenta[1,2-c]pyrazol-1-yl)acetamide] |  |  | 92% | 20.6 µM | 
5 | CN1CCN(CC#Cc2ccc(-c3cccc4c(NS(C)(=O)=O)nn(C)c34)c([C@H](Cc3cc(F)cc(F)c3)NC(=O)Cn3nc(C(F)(F)F)c4c3C(F)(F)[C@@H]3C[C@H]43)n2)CC1 [Compound 32, 2-((3bS,4aR)-5,5-difluoro-3-(trifluoromethyl)-3b,4,4a,5-tetrahydro-1H-cyclopropa[3,4]cyclopenta[1,2-c]pyrazol-1-yl)-N—((S)-2-(3,5-difluorophenyl)-1-(3-(1-methyl-3-(methylsulfonamido)-1H-indazol-7-yl)-6-(3-(4-methylpiperazin-1-yl)prop-1-yn-1-yl)pyridin-2-yl)ethyl)acetamide] |  |  | 95% | 8.53 µM | 
6 | Cc1cc2ncn(CC(=O)N[C@@H](Cc3cc(F)cc(F)c3)c3nc(C#CC4(O)CCOCC4)ccc3-c3ccc4n[nH]c(=O)n4c3C)c2cc1C [Compound 3D, (S)—N-(2-(3,5-difluorophenyl)-1-(6-((4-hydroxytetrahydro-2H-pyran-4-yl)ethynyl)-3-(5-methyl-3-oxo-2,3-dihydro-[1,2,4]triazolo[4,3-a]pyridin-6-yl)pyridin-2-yl)ethyl)-2-(5,6-dimethyl-1H-benzo[d]imidazol-1-yl)acetamide] |  |  | 91% | 31.6 µM | 
7 | Cc1nccn1C(C)(C)C#Cc1ccc(-c2ccc(Cl)c3c(NS(C)(=O)=O)nn(C)c23)c([C@H](Cc2cc(F)cc(F)c2)NC(=O)Cn2nc(C(F)(F)F)c3c2C(F)(F)[C@@H]2C[C@H]32)n1 [Compound 90, N—((S)-1-(3-(4-chloro-1-methyl-3-(methylsulfonamido)-1H-indazol-7-yl)-6-(3-methyl-3-(2-methyl-1H-imidazol-1-yl)but-1-yn-1-yl)pyridin-2-yl)-2-(3,5-difluorophenyl)ethyl)-2-((3bS,4aR)-5,5-difluoro-3-(trifluoromethyl)-3b,4,4a,5-tetrahydro-1H-cyclopropa[3,4]cyclopenta[1,2-c]pyrazol-1-yl)acetamide] |  |  | 98% | 3.04 µM | 
8 | Cn1ccnc1C(C)(C)C#Cc1ccc(-c2ccc(Cl)c3c(NS(C)(=O)=O)nn(C)c23)c([C@H](Cc2cc(F)cc(F)c2)NC(=O)Cn2nc(C(F)F)c3c2C(F)(F)[C@@H]2C[C@H]32)n1 [Compound 92B, N—((S)-1-(3-(4-chloro-1-methyl-3-(methylsulfonamido)-1H-indazol-7-yl)-6-(3-methyl-3-(1-methyl-1H-imidazol-2-yl)but-1-yn-1-yl)pyridin-2-yl)-2-(3,5-difluorophenyl)ethyl)-2-((3bS,4aR)-3-(difluoromethyl)-5,5-difluoro-3b,4,4a,5-tetrahydro-1H-cyclopropa[3,4]cyclopenta[1,2-c]pyrazol-1-yl)acetamide] |  |  | 100% | 25.9 µM | 
9 | Cn1nc(NS(C)(=O)=O)c2c(Cl)ccc(-c3ccc(C#CC4CCCN4C(=O)CO)nc3[C@H](Cc3cc(F)cc(F)c3)NC(=O)Cn3nc(C(F)(F)F)c4c3C(F)(F)[C@@H]3C[C@H]43)c21 (stereo partly drawn) [Compound 66, N-((1S)-1-(3-(4-chloro-1-methyl-3-(methylsulfonamido)-1H-indazol-7-yl)-6-((1-(2-hydroxyacetyl)pyrrolidin-2-yl)ethynyl)pyridin-2-yl)-2-(3,5-difluorophenyl)ethyl)-2-((3bS,4aR)-5,5-difluoro-3-(trifluoromethyl)-3b,4,4a,5-tetrahydro-1H-cyclopropa[3,4]cyclopenta[1,2-c]pyrazol-1-yl)acetamide] |  |  | 92% | 11.6 µM | 
10 | NC(=O)c1cc(-c2ccc(C#CC3(O)CCCC3)nc2[C@H](Cc2cc(F)cc(F)c2)NC(=O)Cn2nc(C(F)(F)F)c3c2C(F)(F)[C@@H]2C[C@H]32)ccc1F [Compound 15B, 5-(2-((S)-1-(2-((3bS,4aR)-5,5-difluoro-3-(trifluoromethyl)-3b,4,4a,5-tetrahydro-1H-cyclopropa[3,4]cyclopenta[1,2-c]pyrazol-1-yl)acetamido)-2-(3,5-difluorophenyl)ethyl)-6-((1-hydroxycyclopentyl)ethynyl)pyridin-3-yl)-2-fluorobenzamide] | 68% | 68% | 68% | 3.02 µM | 
11 | CN1CCC(O)(C#Cc2ccc(-c3cccc4c(NS(C)(=O)=O)nn(C)c34)c([C@H](Cc3cc(F)cc(F)c3)NC(=O)Cn3nc(C(F)(F)F)c4c3C(F)(F)[C@@H]3C[C@H]43)n2)CC1 [Compound 31, 2-((3bS,4aR)-5,5-difluoro-3-(trifluoromethyl)-3b,4,4a,5-tetrahydro-1H-cyclopropa[3,4]cyclopenta[1,2-c]pyrazol-1-yl)-N—((S)-2-(3,5-difluorophenyl)-1-(6-((4-hydroxy-1-methylpiperidin-4-yl)ethynyl)-3-(1-methyl-3-(methylsulfonamido)-1H-indazol-7-yl)pyridin-2-yl)ethyl)acetamide] |  |  | 93% | 20.2 µM | 
12 | Cn1nc(NS(C)(=O)=O)c2cccc(-c3ccc(C#CC4(C)COC4)nc3[C@H](Cc3cc(F)cc(F)c3)NC(=O)Cn3nc(C(F)(F)F)c4c3C(F)(F)[C@@H]3C[C@H]43)c21 [Compound 29, 2-((3bS,4aR)-5,5-difluoro-3-(trifluoromethyl)-3b,4,4a,5-tetrahydro-1H-cyclopropa[3,4]cyclopenta[1,2-c]pyrazol-1-yl)-N—((S)-2-(3,5-difluorophenyl)-1-(3-(1-methyl-3-(methylsulfonamido)-1H-indazol-7-yl)-6-((3-methyloxetan-3-yl)ethynyl)pyridin-2-yl)ethyl)acetamide] |  |  | 100% | 12.4 µM | 
13 | Cn1nc(NS(C)(=O)=O)c2c(Cl)ccc(-c3ccc(C#CC(C)(C)N4CCOC4=O)nc3[C@H](Cc3cc(F)cc(F)c3)NC(=O)Cn3nc(C(F)(F)F)c4c3C(F)(F)[C@@H]3C[C@H]43)c21 [Compound 63, N—((S)-1-(3-(4-chloro-1-methyl-3-(methylsulfonamido)-1H-indazol-7-yl)-6-(3-methyl-3-(2-oxooxazolidin-3-yl)but-1-yn-1-yl)pyridin-2-yl)-2-(3,5-difluorophenyl)ethyl)-2-((3bS,4aR)-5,5-difluoro-3-(trifluoromethyl)-3b,4,4a,5-tetrahydro-1H-cyclopropa[3,4]cyclopenta[1,2-c]pyrazol-1-yl)acetamide] |  |  | 90% | 20.7 µM | 
